Legend:
[1] = system: A549-ACE2 infected with SARS-CoV-2; assay: cell count relative to DMSO; higher = less toxic; conditions: 24 h
[2] = system: Caco-2; assay: cell viability relative to DMSO; higher = less toxic; conditions: 72 h
[3] = system: Calu-3; assay: as above; conditions: 72 h
[4] = system: HepG2; assay: as above; conditions: 72 h
[5] = system: U2OS; assay: as above; conditions: 72 h
[6] = system: Vero E6; assay: as above; conditions: 72 h
[7] = system: A549-ACE2 infected with SARS-CoV-2; assay: SARS-CoV-2 infection rate relative to DMSO; higher = more infection; conditions: 24 h
[8] = system: A549-ACE2; assay: drug-induced phospholipidosis relative to tamoxifen; higher = more phospholipidosis
[9] = system: A549-ACE2 infected with SARS-CoV-2; assay: morphology score (similarity to uninfected cells); higher = more like uninfected cells; conditions: 24 h
[10] = system: Caco-2; assay: relative viability EC50 (midpoint between 100% and the lowest measured viability); higher = less toxic; conditions: 72 h
[11] = system: Calu-3; assay: as above; conditions: 72 h
[12] = system: HepG2; assay: as above; conditions: 72 h
[13] = system: U2OS; assay: as above; conditions: 72 h
[14] = system: Vero E6; assay: as above; conditions: 72 h
[15] = system: Caco-2; assay: drug sensitivity score (DSS) for viability; higher = more toxic; extreme values may be limits of the assay; conditions: 72 h
[16] = system: Calu-3; assay: as above; conditions: 72 h
[17] = system: HepG2; assay: as above; conditions: 72 h
[18] = system: U2OS; assay: as above; conditions: 72 h
[19] = system: Vero E6; assay: as above; conditions: 72 h
[20] = system: A549-ACE2; assay: phospholipidosis EC50; higher = less potent phospholipidosis inducer

Clc1ccc(N/N=C(\c2ccccc2)c2ccccn2)nc1 [JIB04]
Conditions | SARS-CoV-2 infection rate, [7] [%] | cell count, [1] [%] | cell viability, [2] [%] | cell viability, [3] [%] | cell viability, [4] [%] | cell viability, [5] [%] | cell viability, [6] [%] | morphology score, [9]
1 nM | – | – | 89.4 | 101 | 92.7 | 102 | 91.7 | –
10 nM | – | – | 94.1 | 108 | 87.8 | 97.9 | 102 | –
100 nM | – | – | 33.7 | 102 | 19.8 | 95.6 | 89.4 | –
0.3 µM | 104 | 99 | – | – | – | – | – | -0.14
1000 nM | – | – | 11.2 | 14.7 | 6.2 | 34.3 | 53.7 | –
3 µM | 82 | 96 | – | – | – | – | – | 0.28
10 µM | 36 | 88 | – | – | – | – | – | 0.37
10000 nM | – | – | 34.7 | 18.8 | 21.6 | 6.9 | 6.4 | –
30 µM | 50 | 54 | – | – | – | – | – | 0.36

[8]
Conditions | drug-induced phospholipidosis [%]
0.3 µM, 24 h | 4.18
0.3 µM, 48 h | 6.34
0.3 µM, 72 h | 8.31
0.833333 µM, 24 h | -0.88
3.33333 µM, 24 h | -2.31
6.66667 µM, 24 h | 22.5
10 µM, 24 h | 26.1
30 µM, 24 h | 2.4

Conditions | drug sensitivity score | relative viability EC50 [µM]
[10] | – | 0.0502
[11] | – | 0.327
[12] | – | 0.0327
[13] | – | 0.595
[14] | – | 0.943
[15] | 24.6 | –
[16] | 15.3 | –
[17] | 28.1 | –
[18] | 13.2 | –
[19] | 10.7 | –

CCOc1ccc(-c2nc(-c3cccc4c3CCC4NCCO)no2)cc1OCC (configuration not stated) [CYM-5442]
Conditions | SARS-CoV-2 infection rate [%] | cell count [%] | cell viability [%] | morphology score | phospholipidosis EC50 [µM]
[1], 0.3 µM | – | 100 | – | – | –
[1], 3 µM | – | 118 | – | – | –
[1], 10 µM | – | 113 | – | – | –
[1], 30 µM | – | 104 | – | – | –
[2], 1 nM | – | – | 91 | – | –
[2], 10 nM | – | – | 96.9 | – | –
[2], 100 nM | – | – | 102 | – | –
[2], 1000 nM | – | – | 99.2 | – | –
[2], 10000 nM | – | – | 71.7 | – | –
[3], 1 nM | – | – | 94.6 | – | –
[3], 10 nM | – | – | 95.2 | – | –
[3], 100 nM | – | – | 91.2 | – | –
[3], 1000 nM | – | – | 104 | – | –
[3], 10000 nM | – | – | 92.8 | – | –
[4], 1 nM | – | – | 97.5 | – | –
[4], 10 nM | – | – | 101 | – | –
[4], 100 nM | – | – | 90.5 | – | –
[4], 1000 nM | – | – | 97.2 | – | –
[4], 10000 nM | – | – | 78.8 | – | –
[5], 1 nM | – | – | 99 | – | –
[5], 10 nM | – | – | 95.7 | – | –
[5], 100 nM | – | – | 103 | – | –
[5], 1000 nM | – | – | 97 | – | –
[5], 10000 nM | – | – | 90.5 | – | –
[6], 1 nM | – | – | 90.7 | – | –
[6], 10 nM | – | – | 102 | – | –
[6], 100 nM | – | – | 84.5 | – | –
[6], 1000 nM | – | – | 94.7 | – | –
[6], 10000 nM | – | – | 99.1 | – | –
[7], 0.3 µM | 96 | – | – | – | –
[7], 3 µM | 55 | – | – | – | –
[7], 10 µM | 13 | – | – | – | –
[7], 30 µM | 19 | – | – | – | –
[9], 0.3 µM | – | – | – | 0.19 | –
[9], 3 µM | – | – | – | 0.72 | –
[9], 10 µM | – | – | – | 0.84 | –
[9], 30 µM | – | – | – | 0.63 | –
[20], 24 h | – | – | – | – | 2.26
[20], 48 h | – | – | – | – | 3.87
[20], 72 h | – | – | – | – | 4.72

drug-induced phospholipidosis [%], [8]
Conditions | 0.3 µM | 0.833333 µM | 3.33333 µM | 6.66667 µM | 10 µM | 30 µM
24 h | 3.28 | 18.4 | 62.3 | 81.5 | 100 | 87.8
48 h | 3.02 | 11.2 | 44.6 | 72.9 | 96 | 93.9
72 h | 0.284 | 11.6 | 36.7 | 67.4 | 106 | 99.3

Conditions | drug sensitivity score | relative viability EC50 [µM]
[11] | – | > 10
[12] | – | > 10
[13] | – | > 10
[14] | – | > 10
[15] | 1.3 | –
[16] | 0 | –
[17] | 1.1 | –
[18] | 0 | –
[19] | 0 | –

CCN(CC)CCOC(=O)C1(C2CCCCC2)CCCCC1 [dicycloverine]
Conditions | SARS-CoV-2 infection rate, [7] [%] | cell count, [1] [%] | cell viability, [2] [%] | cell viability, [3] [%] | cell viability, [4] [%] | cell viability, [5] [%] | cell viability, [6] [%] | morphology score, [9]
1 nM | – | – | 99.3 | 93.2 | 95.7 | 97 | 96.1 | –
10 nM | – | – | 95.6 | 104 | 97.6 | 99.3 | 94 | –
100 nM | – | – | 97.2 | 91.8 | 103 | 99.3 | 98 | –
0.3 µM | 94 | 97 | – | – | – | – | – | 0.02
1000 nM | – | – | 98.1 | 91.8 | 98.7 | 108 | 92.6 | –
3 µM | 66 | 112 | – | – | – | – | – | 0.62
10 µM | 46 | 114 | – | – | – | – | – | 0.78
10000 nM | – | – | 102 | 102 | 105 | 104 | 108 | –
30 µM | 34 | 118 | – | – | – | – | – | 0.84

drug-induced phospholipidosis [%], [8]
Conditions | 0.3 µM | 0.833333 µM | 3.33333 µM | 6.66667 µM | 10 µM | 30 µM
24 h | 4.66 | 1.82 | 4.06 | 5.19 | 6.77 | 68.6
48 h | 6.16 | 1.46 | 3.34 | 3.8 | 4.6 | 45.9
72 h | 5.16 | -0.588 | 0.239 | 2.22 | 2.64 | 30.3

Conditions | drug sensitivity score | relative viability EC50 [µM]
[10] | – | > 10
[11] | – | > 10
[12] | – | > 10
[13] | – | > 10
[14] | – | > 10
[15] | 0 | –
[16] | 0 | –
[17] | 0 | –
[18] | 0 | –
[19] | 0 | –

CCS(=O)(=O)N1CCC([C@@H](C)n2c(C)c(C(=O)NCc3c(OC)cc(C)[nH]c3=O)c3ccccc32)CC1 [CPI-169]
cell viability [%]
Conditions | [2] | [3] | [4] | [5] | [6]
1 nM | 95.8 | 97.3 | 104 | 92.1 | 100
10 nM | 94.7 | 102 | 103 | 101 | 96.7
100 nM | 101 | 98.7 | 104 | 99.3 | 96.9
1000 nM | 100 | 94.3 | 94.3 | 105 | 99.7
10000 nM | 95 | 97.4 | 101 | 102 | 103

Conditions | drug sensitivity score | relative viability EC50 [µM]
[10] | – | > 10
[11] | – | > 10
[12] | – | > 10
[13] | – | > 10
[14] | – | > 10
[15] | 0 | –
[16] | 0 | –
[17] | 0 | –
[18] | 0 | –
[19] | 0 | –

CC(C)(C)c1ccc(C(O)CCCN2CCC(C(O)(c3ccccc3)c3ccccc3)CC2)cc1 (configuration not stated) [terfenadine]
cell viability [%]
Conditions | [2] | [3] | [4] | [5] | [6]
1 nM | 77.3 | 97.6 | 108 | 98.1 | 107
10 nM | 100 | 115 | 117 | 101 | 97.3
100 nM | 76.3 | 97.3 | 103 | 96.5 | 109
1000 nM | 101 | 104 | 96.9 | 99.7 | 101
10000 nM | 80.2 | 106 | 99.8 | 97.8 | 100

Conditions | drug sensitivity score | relative viability EC50 [µM]
[10] | – | > 10
[11] | – | > 10
[12] | – | > 10
[13] | – | > 10
[14] | – | > 10
[15] | 2.4 | –
[16] | 0 | –
[17] | 0 | –
[18] | 0 | –
[19] | 0 | –

From the supplement of paper PMC13380429
